PubChem BioAssay (NCI)
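How tested: cells in 96-well plates exposed to compound for 48 hours at five concentrations. At the GI50, growth is halved. Definition used: TGI = concentration required for complete inhibition of growth.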

Experiments:
Assay in all cases: NCI anticancer screen, dose series, 48 h
NCI-H23 lung = system: NCI-H23 lung
TK-10 renal = system: TK-10 renal
CAKI-1 renal = system: CAKI-1 renal
MALME-3M melanoma = system: MALME-3M melanoma
SK-OV-3 ovarian = system: SK-OV-3 ovarian
MOLT-4 leukemia = system: MOLT-4 leukemia
SNB-19 CNS = system: SNB-19 CNS
BT-549 breast = system: BT-549 breast
DU-145 prostate = system: DU-145 prostate
KM12 colon = system: KM12 colon
PC-3 prostate = system: PC-3 prostate
A498 renal = system: A498 renal
M14 melanoma = system: M14 melanoma
IGROV1 ovarian = system: IGROV1 ovarian
HT29 colon = system: HT29 colon
SR leukemia = system: SR leukemia
NCI-H460 lung = system: NCI-H460 lung
786-0 renal = system: 786-0 renal
COLO 205 colon = system: COLO 205 colon
RXF 393 renal = system: RXF 393 renal
SW-620 colon = system: SW-620 colon
RPMI-8226 leukemia = system: RPMI-8226 leukemia
HOP-92 NSCLC = system: HOP-92 NSCLC
HS 578T breast = system: HS 578T breast
SN12C renal = system: SN12C renal
HCT-116 colon = system: HCT-116 colon
UO-31 renal = system: UO-31 renal
OVCAR-8 ovarian = system: OVCAR-8 ovarian
SF-539 CNS = system: SF-539 CNS
MDA-MB-435 = system: MDA-MB-435
SK-MEL-2 melanoma = system: SK-MEL-2 melanoma
LOX IMVI melanoma = system: LOX IMVI melanoma
MDA-MB-231 breast = system: MDA-MB-231 breast
NCI-H522 lung = system: NCI-H522 lung
A549 NSCLC = system: A549 NSCLC
SF-295 CNS = system: SF-295 CNS
EKVX NSCLC = system: EKVX NSCLC
ACHN renal = system: ACHN renal
MCF7 breast = system: MCF7 breast
HL-60(TB) leukemia = system: HL-60(TB) leukemia
SK-MEL-5 melanoma = system: SK-MEL-5 melanoma
HCT-15 colon = system: HCT-15 colon
CCRF-CEM leukemia = system: CCRF-CEM leukemia
SF-268 CNS = system: SF-268 CNS
UACC-257 melanoma = system: UACC-257 melanoma
OVCAR-4 ovarian = system: OVCAR-4 ovarian
NCI-H226 lung = system: NCI-H226 lung
HOP-62 NSCLC = system: HOP-62 NSCLC
OVCAR-3 ovarian = system: OVCAR-3 ovarian
HCC-2998 colon = system: HCC-2998 colon
K-562 leukemia = system: K-562 leukemia
SK-MEL-28 melanoma = system: SK-MEL-28 melanoma
OVCAR-5 ovarian = system: OVCAR-5 ovarian
T-47D breast = system: T-47D breast
U251 CNS = system: U251 CNS
UACC-62 melanoma = system: UACC-62 melanoma
NCI/ADR-RES ovarian = system: NCI/ADR-RES ovarian
SNB-75 CNS = system: SNB-75 CNS

CCN1C(=O)N(CC)C2C1NN=c1s/c(=C\c3ccccc3F)c(=O)n12 (centres undefined)
GI50 (NCI-H23 lung): 64.1 nM
TGI (NCI-H23 lung): > 100 µM
GI50 (TK-10 renal): 1680 nM
TGI (TK-10 renal): > 63.6 µM
GI50 (CAKI-1 renal): 32.3 nM
TGI (CAKI-1 renal): > 100 µM
GI50 (MALME-3M melanoma): 15.4 µM
TGI (MALME-3M melanoma): > 100 µM
GI50 (SK-OV-3 ovarian): 54 nM
TGI (SK-OV-3 ovarian): 77.5 µM
GI50 (MOLT-4 leukemia): 41.9 nM
TGI (MOLT-4 leukemia): > 100 µM
GI50 (SNB-19 CNS): 48.9 nM
TGI (SNB-19 CNS): > 100 µM
GI50 (BT-549 breast): 35.8 nM
TGI (BT-549 breast): > 93.3 µM
GI50 (DU-145 prostate): 39.8 nM
TGI (DU-145 prostate): > 100 µM
GI50 (KM12 colon): 27.8 nM
TGI (KM12 colon): > 48.9 µM
GI50 (PC-3 prostate): 40 nM
TGI (PC-3 prostate): > 100 µM
GI50 (A498 renal): 15.4 nM
TGI (A498 renal): 64 nM
GI50 (M14 melanoma): 31.1 nM
TGI (M14 melanoma): > 100 µM
GI50 (IGROV1 ovarian): 51.2 nM
TGI (IGROV1 ovarian): > 43.4 µM
GI50 (HT29 colon): 31.9 nM
GI50 (SR leukemia): 27.8 nM
TGI (SR leukemia): > 74.7 µM
GI50 (NCI-H460 lung): 35.5 nM
TGI (NCI-H460 lung): > 40.6 µM
GI50 (786-0 renal): 61 nM
TGI (786-0 renal): 52.8 µM
GI50 (COLO 205 colon): 27.1 nM
TGI (COLO 205 colon): 73.7 nM
GI50 (RXF 393 renal): 22.4 nM
TGI (RXF 393 renal): 1360 nM
GI50 (SW-620 colon): 37.9 nM
TGI (SW-620 colon): > 100 µM
GI50 (RPMI-8226 leukemia): 41.5 nM
TGI (RPMI-8226 leukemia): > 37.7 µM
GI50 (HOP-92 NSCLC): 1110 nM
TGI (HOP-92 NSCLC): 69 µM
GI50 (HS 578T breast): 34.5 nM
TGI (HS 578T breast): > 100 µM
GI50 (SN12C renal): 52.2 nM
TGI (SN12C renal): > 100 µM
GI50 (HCT-116 colon): 33.3 nM
TGI (HCT-116 colon): 14.3 µM
GI50 (UO-31 renal): 170 nM
TGI (UO-31 renal): > 69.4 µM
GI50 (OVCAR-8 ovarian): 35.7 nM
GI50 (SF-539 CNS): 23.6 nM
TGI (SF-539 CNS): 69.6 nM
GI50 (MDA-MB-435): 14.8 nM
TGI (MDA-MB-435): 52 nM
GI50 (SK-MEL-2 melanoma): 48.9 nM
TGI (SK-MEL-2 melanoma): > 38.9 µM
GI50 (LOX IMVI melanoma): 41.1 nM
TGI (LOX IMVI melanoma): > 100 µM
GI50 (MDA-MB-231 breast): 45.7 nM
TGI (MDA-MB-231 breast): > 84.6 µM
GI50 (NCI-H522 lung): 19.2 nM
TGI (NCI-H522 lung): 1300 nM
GI50 (A549 NSCLC): 41.9 nM
TGI (A549 NSCLC): > 100 µM
GI50 (SF-295 CNS): 24.2 nM
TGI (SF-295 CNS): > 49.8 µM
GI50 (EKVX NSCLC): 48.1 nM
TGI (EKVX NSCLC): > 100 µM
GI50 (ACHN renal): 52.2 nM
TGI (ACHN renal): > 100 µM
GI50 (MCF7 breast): 32.5 nM
TGI (MCF7 breast): > 63.6 µM
GI50 (HL-60(TB) leukemia): 23.9 nM
TGI (HL-60(TB) leukemia): 60.7 nM
GI50 (SK-MEL-5 melanoma): 28.9 nM
TGI (SK-MEL-5 melanoma): 203 nM
GI50 (HCT-15 colon): 31.6 nM
TGI (HCT-15 colon): > 100 µM
GI50 (CCRF-CEM leukemia): 38.6 nM
TGI (CCRF-CEM leukemia): > 100 µM
GI50 (SF-268 CNS): 67.9 nM
TGI (SF-268 CNS): > 67.4 µM
GI50 (UACC-257 melanoma): 2110 nM
TGI (UACC-257 melanoma): > 100 µM
GI50 (OVCAR-4 ovarian): 66.8 nM
TGI (OVCAR-4 ovarian): > 100 µM
GI50 (NCI-H226 lung): 11.2 µM
TGI (NCI-H226 lung): > 100 µM
GI50 (HOP-62 NSCLC): 54.5 nM
TGI (HOP-62 NSCLC): > 100 µM
GI50 (OVCAR-3 ovarian): 28.2 nM
TGI (OVCAR-3 ovarian): 78.9 nM
GI50 (HCC-2998 colon): 33.4 nM
TGI (HCC-2998 colon): > 58.8 µM
GI50 (K-562 leukemia): 30.1 nM
TGI (K-562 leukemia): > 100 µM
GI50 (SK-MEL-28 melanoma): 62.4 µM
TGI (SK-MEL-28 melanoma): > 100 µM
GI50 (OVCAR-5 ovarian): 62.8 nM
TGI (OVCAR-5 ovarian): > 100 µM
GI50 (T-47D breast): 35.7 µM
TGI (T-47D breast): > 100 µM
GI50 (U251 CNS): 35.4 nM
TGI (U251 CNS): > 100 µM
GI50 (UACC-62 melanoma): 50.5 nM
TGI (UACC-62 melanoma): > 80.4 µM
GI50 (NCI/ADR-RES ovarian): 29.6 nM
TGI (NCI/ADR-RES ovarian): > 63.6 µM
GI50 (SNB-75 CNS): 13.3 nM
TGI (SNB-75 CNS): 71.1 nM
